Experimental data reported in US4780238A (priority 1985, dated 1988).

Test system: P. aeruginosa
Type: cell-based, Pseudomonas aeruginosa

Structure (SMILES) | lag period of the organism | inhibitory effect on growth
O=[N+]([O-])[O-].O=[N+]([O-])[O-].O=[N+]([O-])[O-].O=[N+]([O-])[O-].[Th+4] [Th(NO3)4, thorium nitrate] | the lag period of the organism also increased | –
O=[N+]([O-])[O-].O=[N+]([O-])[O-].[O]=[U+2]=[O] [uranyl nitrate] | – | stronger inhibitory effect on growth of the organism than thorium
